# “Also recorded” adds a separate entry of the source.
# Key:
# [1] = system: Cy3/Cy5-labeled mononucleosomes (603 DNA, 147 bp); assay: Single-molecule FRET (spFRET) of nucleosome-peptide interactions; type: biochemical, H. sapiens; details: 10 μM peptide
# Text: Non-fluorescently labeled nuclesomal DNA fragments were obtained as follows. pUC57 plasmids containing eight repeats of the high-affinity 147 bp Widom 603 sequence were amplified in E. coli XL-10 stain and purified via alkaline lysis (see details in Supplementary Materials and Methods). The Widom 603 fragments were released via cleavage with EcoRV and separated from parent plasmid with polyethylene glycol precipitation in order to clear the vector backbone as described in [86]. Nucleosomal DNA fragments fluorescently labeled at the 35 and 112 bp positions were obtained following established protocols. […]
# NCPs were reconstituted by mixing 147 bp Widom 603 DNA and histone octamers at a 1:1.15 molar ratio. […] Fluorescently labeled nucleosomes were detected by in-gel FRET using a Typhoon scanner (GE Healthcare, Chicago, IL, USA) with excitation at 532 nm laser and emission at 670 nm (FRET between Cy3 and Cy5) or 580 nm (Cy3 signal) (Supplementary Figure S5).
# Single-particle FRET measurements were conducted with LSM710-Confocor3 laser scanning confocal microscope (Carl Zeiss, Jena, Germany) as described previously. […] To evaluate the level of background signal and reveal fluorescence bursts, spFRET data were analyzed using the FretBursts version 0.7.1 software. […]
# [2] = system: FAM-LANA1-22 (Kaposi's sarcoma-associated herpesvirus); assay: fluorescence polarization; details: FP: 10 mM Tris-HCl pH 8.0, 0.2 mM EDTA, 5 mM 2-mercaptoethanol, 10 mM NaCl, 30 min incubation at 4 C, EMSA: 6% PAGE, 10 mM HEPES-Na pH 8.0, 0.2 mM EDTA
# [3] = molecular target: nucleosome (H. sapiens canonical histone octamer on 147 bp Widom 603 DNA) (H. sapiens) (UniProt P04908); assay: fluorescence polarisation; 100 nM FAM-LANA_(1-22) as tracer, nucleosome concentration varied by two-fold serial dilution, 30 min at +4 C; 10 mM TrisHCl pH 8.0, 200 uM EDTA, 5 mM 2-mercaptoethanol, 10 mM NaCl; simple direct binding model with identical, non-interacting sites
substance,measurement,setting,value
"PNVRRSNRIRLKPLEYWRGERIDYQ [CENP-Cmotif, fragment of CENP-C protein (amino acids 710–734) from R. norvegicus]",shift of EPR value distribution,[1]; 1 nM nucleosomes,"shift of the EPR value distribution towards higher EPR values; also recorded: makes nucleosomes, on average, more compact"
same,"effect on average nucleosome compactness, compared with LANA1-22",[1]; spFRET,"higher than that of LANA1-22; also recorded: makes nucleosomes more compact than LANA1-22, on average"
Widom 603 nucleosome,Kd,[2],0.4 µM
FAM-labeled LANA_(1-22) peptide (from UniProt Q9QR71 1-22),Kd,[3],0.4 µM

# Reference: publication PMC10606924, “Interactions of Nucleosomes with Acidic Patch-Binding Peptides: A Combined Structural Bioinformatics, Molecular Modeling, Fluorescence Polarization, and Single-Molecule FRET Study” (International Journal of Molecular Sciences, 2023)
